Consider 20 molecules from patent publication US20090209578A1, “CHEMICAL COMPOUNDS” (PFIZER INC, priority 2005, published 2009).

The test has as its target HIV-1 fusion (gp160 induced cell-cell fusion; HeLa P4 cell line expressing CCR5 and CD4 / CHO-Tat10 cell line) (Homo sapiens, UniProt P51681). Kind of test: gp160 induced cell-cell fusion assay. The class given is cell-based. The following applies: HeLa P4 / CHO-Tat10 cells. From the text:
Biol., 60, 147-52 (1996); and/or by using the intracellular calcium mobilisation assays as described by the same authors, and/or inhibiting cell fusion following procedures disclosed in Bradley et al., J Biomol Screen 9, 516-24 (2004).
The gp160 induced cell-cell fusion assay uses a HeLa P4 cell line and a CHO-Tat10 cell line.
The HeLa P4 cell line expresses CCR5 and CD4 and has been transfected with HIV-1 LTR-β-Galactosidase. The media for this cell line is Dulbecco modified eagle's medium (D-MEM) (without L-glutamine) containing 10% foetal calf serum (FCS), 2 mM L-glutamine, penicillin/streptomycin (Pen/Strep; 100 U/mL penicillin+[…] streptomycin), and 1 μg/ml puromycin.
The CHO cell line is a Tat (transcriptional trans activator)-expressing clone from a CHO JRR17.1 cell line that has been transfected with pTat puro plasmid. The media for this cell line is rich medium for mammalian cell culture originally developed at Roswell Park Memorial Institute RPMI1640 (without L-glutamine) containing 10% FCS, 2 mM L-glutamine, 0.5 mg/ml Hygromycin B and 12 µg/ml puromycin. The CHO JRR17.1 line expresses gp160 (JRFL) and is a clone that has been selected for its ability to fuse with a CCR5/CD4 expressing cell line.
Upon cell fusion, Tat present in the CHO cell is able to transactivate the HIV-1 long terminal repeat (LTR) present in the HeLa cell leading to the expression of the β-Galactosidase enzyme. This expression is then measured using a Fluor Ace™ β-Galactosidase reporter assay kit (Bio-Rad cat no. 170-3150). This kit is a quantitative fluorescent assay that determines the level of expression of β-galactosidase using 4-methylumbelliferyl-galactopyranoside (MUG) as substrate. β-Galactosidase hydrolyses the fluorogenic substrate resulting in release of the fluorescent molecule 4-methylumbelliferone (4MU). Fluorescence of 4-methylumbelliferone is then measured on a fluorometer using an excitation wavelength of 360 nm and emission wavelength of 460 nm.
Compounds that inhibit fusion will give rise to a reduced signal and, following solubilisation in an appropriate solvent and dilution in culture medium, a dose-response curve for each compound can be used to calculate IC50 values.

Each structure is given as a SMILES string. Like-named read-outs stand apart in the source and are kept apart here.

Sequence of HIV-1 fusion (gp160 induced cell-cell fusion; HeLa P4 cell line expressing CCR5 and CD4 / CHO-Tat10 cell line) (P51681 whole entry, the tested form may be a part): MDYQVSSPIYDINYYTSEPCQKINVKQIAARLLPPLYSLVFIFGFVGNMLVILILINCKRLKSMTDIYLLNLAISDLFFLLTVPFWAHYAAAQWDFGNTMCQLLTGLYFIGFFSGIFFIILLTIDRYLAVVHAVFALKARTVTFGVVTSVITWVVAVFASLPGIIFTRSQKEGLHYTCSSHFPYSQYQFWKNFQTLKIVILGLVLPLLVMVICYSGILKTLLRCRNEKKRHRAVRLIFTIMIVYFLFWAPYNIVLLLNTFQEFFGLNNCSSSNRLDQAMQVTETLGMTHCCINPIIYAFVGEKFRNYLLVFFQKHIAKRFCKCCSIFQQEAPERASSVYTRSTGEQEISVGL

As to `Cc1cc(C(C)C)n(C2CCN(C(C)C[C@H](NC(=O)C3CCC(F)(F)CC3)c3ccccc3)CC2)n1` (single isomer, unassigned) [Example 116], the IC50 (read-out: IC50) was 50.5 nM. Take `Cc1cc(C(C)C)n(C2CCN(C(C)C[C@H](NC(=O)C3CCC(F)(F)CC3)c3ccccc3)CC2)n1` (single isomer, unassigned) [Example 117]: for the setting “read-out: IC50”, the IC50 was determined as 1170 nM. Same read-out and setting: the same measure for `CC(C)c1nnnn1C1CCN(C(C)C[C@H](NC(=O)C2CCC(F)(F)CC2)c2ccccc2)CC1` (single isomer, unassigned) [Example 121]: 0.5 nM; for `CC(C[C@H](NC(=O)C1CCC(F)(F)CC1)c1ccccc1)N1CCC(c2nnnn2C(C)C)CC1` (single isomer, unassigned) [Example 125]: 2.2 nM; for `CC(C[C@H](NC(=O)C1CCC(F)(F)CC1)c1ccccc1)N1CCC(c2nnnn2C(C)C)CC1` (single isomer, unassigned) [Example 126]: 21.8 nM. On the same count and under the same terms, the same measure for `COC(=O)N1CCc2nc(C)n(C3CCN(C(C)C[C@H](NC(=O)C4CCC4(F)F)c4ccccc4)CC3)c2C1` (some centres unmarked) [Example 5]: 0.7 nM. For `Cc1nc2c(n1C1CCN(C(C)C[C@H](NC(=O)C3(C)CC3)c3ccccc3)CC1)CN(C(=O)C(C)C)CC2` (some centres unmarked) [Example 22], the IC50 (read-out: IC50) was determined as 0.5 nM.

In the case of `Cc1nc2c(n1C1CCN(C(C)C[C@H](NC(=O)C3CC(F)(F)C3)c3ccccc3)CC1)CN(C(=O)C(C)C)CC2` (stereo partly drawn) [Example 25, 3,3-Difluoro-N-{(1S)-3-[4-(5-isobutyryl-2-methyl-4,5,6,7-tetrahydro-3H-imidazo[4,5-c]pyridin-3-yl)piperidin-1-yl]-1-phenylbutyl}cyclobutanecarboxamide], the IC50 (read-out: IC50) worked out at 0.4 nM. Same read-out and setting: in the case of `Cc1nc2c(n1C1CCN(C(C)C[C@H](NC(=O)C3CCC3(F)F)c3ccccc3)CC1)CN(C(=O)C(C)C)CC2` (some centres unmarked) [Example 26] it was 38.5 nM; in that of `Cc1nc2c(n1C1CCN(C(C)C[C@H](NC(=O)C3(C)CC3)c3ccccc3)CC1)CN(C(=O)C(C)C)CC2` (some centres unmarked) [Example 27], 115 nM. Still for that read-out and setting: the same measure for `CC(=O)N1CCc2nc(C)n(C3CCN(C(C)C[C@H](NC(=O)C4(C)CC4)c4cccc(F)c4)CC3)c2C1` (some centres unmarked) [Example 48]: 0.8 nM; for `CC(=O)N1CCc2nc(C)n(C3CCN(C(C)C[C@H](NC(=O)C4CCC4(F)F)c4cccc(F)c4)CC3)c2C1` (some centres unmarked) [Example 49]: 0.4 nM; for `CC(=O)N1CCc2nc(C)n(C3CCN(C(C)C[C@H](NC(=O)C4CCOCC4)c4cccc(F)c4)CC3)c2C1` (some centres unmarked) [Example 52]: 1 nM. Same read-out and setting: in the case of `CC(=O)N1CCc2nc(C)n(C3CCN(C(C)C[C@H](NC(=O)C4CCC4(F)F)c4ccccc4)CC3)c2C1` (some centres unmarked) [Example 53] it was 0.5 nM. For the molecule `CC(=O)N1CCc2nc(C)n(C3CCN(C(C)C[C@H](NC(=O)C4CCC(F)(F)CC4)c4ccccc4)CC3)c2C1` (some centres unmarked) [Example 54], the IC50 (read-out: IC50) stood at 0.4 nM. As for `CC(=O)N1CCc2nc(C)n(C3CCN(C(C)C[C@H](NC(=O)C4(C)CC4)c4ccccc4)CC3)c2C1` (some centres unmarked) [Example 55], for the setting “read-out: IC50”, the IC50 amounted to 0.3 nM. The molecule `CCCC(=O)N[C@@H](CC(C)N1CCC(n2c(C)nc3c2CN(C(C)=O)CC3)CC1)c1ccccc1` (stereo partly drawn) [Example 56, N-{(1S)-3-[4-(5-acetyl-2-methyl-4,5,6,7-tetrahydro-3H-imidazo[4,5-c]pyridin-3-yl)piperidin-1-yl]-1-phenylbutyl}butanamide] yielded an IC50 (IC50 (nM)) of 1.2 nM. As to `CC(=O)N1CCc2nc(C)n(C3CCN(C(C)C[C@H](NC(=O)C4CCC4)c4cccc(F)c4)CC3)c2C1` (some centres unmarked) [Example 57], under “read-out: IC50”, the IC50 was determined as 0.2 nM.

`CC(=O)N1CCc2nc(C)n(C3CCN(C(C)C[C@H](NC(=O)C(C)C)c4cccc(F)c4)CC3)c2C1` (stereo partly drawn) [Example 58, N-[(1S)-3-[4-(5-acetyl-2-methyl-4,5,6,7-tetrahydro-3H-imidazo[4,5-c]pyridin-3-yl)piperidin-1-yl]-1-(3-fluorophenyl)butyl]-2-methylpropanamide] registered an IC50 (IC50 (nM)) of 0.5 nM. For `COC(=O)N[C@@H](CC(C)N1CCC(n2c(C)nc3c2CN(C(C)=O)CC3)CC1)c1cccc(F)c1` (some centres unmarked) [Example 59], the IC50 (read-out: IC50) is 13 nM.
